Source: publication PMC10467532, “Design, synthesis, and biological evaluation of thiazole/thiadiazole carboxamide scaffold-based derivatives as potential c-Met kinase inhibitors for cancer treatment” (Journal of Enzyme Inhibition and Medicinal Chemistry, 2023)

Experiments:
HT-29 = test: MTT antiproliferative assay, HT-29; conditions: Homo sapiens, HT-29, 48 h, read-out: IC50 HT-29
Description: (§2) MTT assay was used to determine the cytotoxic activity of target compounds against different cell lines. […] Then, the cells were treated with five doses of test compounds (pre-dissolved in DMSO), and 0.1% DMSO was used as a negative control. […] The results expressed as IC50 were the average of three determinations calculated by using the Bacus Laboratories Incorporated Slide Scanner (Bliss) software.

A549 = test: MTT antiproliferative assay, A549; conditions: Homo sapiens, A549, 48 h, read-out: IC50 A549
Description: as §2

FHC = test: MTT cytotoxicity assay, normal FHC cells; conditions: Homo sapiens, 48 h, read-out: IC50 FHC
Description: as §2

MKN-45 cells = test: Apoptosis by Annexin V/PI double staining, flow cytometry; conditions: 24 h, control 6.02%
Description: Apoptosis was detected by an Annexin V/propidium iodide (PI) double staining kit (Beyotime Biotechnology, Shanghai, China). […] Cells were harvested by trypsinisation and washed with ice-cold PBS solution. Cells were labelled with annexin V and PI and incubated at room temperature for 30 min in the dark. The labelled cells were analysed by a FACScan flow cytometer (Becton Dickinson, Franklin Lakes, NJ).

MKN-45 = test: MTT antiproliferative assay, MKN-45; conditions: Homo sapiens, MKN-45, 48 h, read-out: IC50 MKN-45
Description: as §2

HUVEC = test: MTT cytotoxicity assay, normal HUVEC cells; conditions: Homo sapiens, 48 h, read-out: IC50 HUVEC
Description: as §2

MDA-MB-231 = test: MTT antiproliferative assay, MDA-MB-231; conditions: Homo sapiens, MDA-MB-231, 48 h, read-out: IC50 MDA-MB-231
Description: as §2

[1] = tested on: c-Met and its downstream protein Akt in MDA-MB-231 cells; set-up: method as in earlier work; conditions: cited from earlier work
PDGFRα = molecular target: T1, PDGFRα (Homo sapiens, UniProt P16234); test: Tyrosine kinase HTRF assay, PDGFRα; format: biochemical
T1 construct: purchased Invitrogen (Waltham, MA)
T1 sequence (P16234 24-1089): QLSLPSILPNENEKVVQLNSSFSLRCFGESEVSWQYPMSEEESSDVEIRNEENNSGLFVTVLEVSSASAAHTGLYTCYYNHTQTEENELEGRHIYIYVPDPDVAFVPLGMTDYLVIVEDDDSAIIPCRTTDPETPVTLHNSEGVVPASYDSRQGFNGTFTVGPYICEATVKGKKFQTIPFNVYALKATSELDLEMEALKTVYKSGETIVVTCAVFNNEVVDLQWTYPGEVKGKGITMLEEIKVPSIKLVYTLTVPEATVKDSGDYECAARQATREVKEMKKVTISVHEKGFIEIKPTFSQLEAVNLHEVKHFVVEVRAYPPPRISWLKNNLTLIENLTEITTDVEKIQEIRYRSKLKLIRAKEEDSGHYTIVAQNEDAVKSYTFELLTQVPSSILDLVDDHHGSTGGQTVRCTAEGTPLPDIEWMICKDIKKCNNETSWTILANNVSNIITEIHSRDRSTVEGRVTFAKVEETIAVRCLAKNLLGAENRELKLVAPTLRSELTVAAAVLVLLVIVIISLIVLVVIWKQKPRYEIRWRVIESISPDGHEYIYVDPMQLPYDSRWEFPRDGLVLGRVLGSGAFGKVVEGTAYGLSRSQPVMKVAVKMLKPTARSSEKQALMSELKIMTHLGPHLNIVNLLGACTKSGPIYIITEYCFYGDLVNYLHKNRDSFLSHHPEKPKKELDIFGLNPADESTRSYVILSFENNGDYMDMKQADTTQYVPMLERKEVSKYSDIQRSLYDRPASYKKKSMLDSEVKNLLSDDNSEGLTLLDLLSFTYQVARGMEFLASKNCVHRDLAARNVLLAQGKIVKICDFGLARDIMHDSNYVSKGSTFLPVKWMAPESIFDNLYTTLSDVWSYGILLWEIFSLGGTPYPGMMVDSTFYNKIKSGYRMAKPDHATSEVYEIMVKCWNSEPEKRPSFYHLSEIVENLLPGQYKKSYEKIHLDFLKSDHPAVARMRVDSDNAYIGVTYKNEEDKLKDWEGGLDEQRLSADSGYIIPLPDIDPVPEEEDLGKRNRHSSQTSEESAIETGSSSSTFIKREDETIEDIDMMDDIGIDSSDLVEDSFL
Description: (§1) On the other hand, comprehensive understanding the off-target kinase inhibition is critical for any kinase inhibitors, particularly to help explain the correlations between efficacy and potential side effects. […] The reactions were quenched by addition 10 µL mixed detection solution. […] The inhibition rate (%) was calculated using the following equation: inhibition rate = [(activity of enzyme with tested compound – min)/(max – min)] × 100 (max: the enzyme activity in the presence of enzyme, substrates and cofactors; min: the enzyme activity in the presence of substrates, cofactors and in the absence of enzyme). IC50 value was calculated from the inhibition curve using GraphPad Prism 5.0 software (La Jolla, CA).

[2] = Pharmacokinetic study in BALB/c mice; format: in vivo; conditions: male, mouse, plasma
Description: Identification of drugs with an acceptable balance of potency, physical properties, and pharmacokinetics (PK) has always been a challenge that often hinders evaluation of the compounds in xenograft models and therapeutic use in clinical practice. Therefore, the PK profile of compound 51am was evaluated in BALB/c mice after intravenous (i.v.) injection and oral administration (p.o.) because of its excellent in vitro activity. […] Based on the good overall PK profile, 51am could be a potential candidate for cancer therapy.
The experimental procedures and the animal use and care protocols were approved by the Committee on Ethical Use of Animals of Shenzhen Second People’s Hospital. Each male BALB/c mice received a single compound 51am as a solution in PEG 400/water (70:30) by either oral route (10 mg/kg) or i.v. route (1.5 mg/kg). Blood samples were collected into the microcentrifuge tube containing heparin at time points 0 (prior to dosing) 5, 10, 20, 30, 60, 180, 360, 480, 600, 720, 1080, and 1440 min after dosing. The blood samples were centrifuged; the obtained plasma was separated and stored at –20 °C. All samples for 51am were measured by liquid chromatography–tandem mass spectrometry (LC/MS/MS).

c-Met Y1235D = molecular target: T2, c-Met Y1235D (Homo sapiens, UniProt P08581, Y1235D); test: Tyrosine kinase HTRF assay, c-Met Y1235D; format: biochemical
T2 construct: purchased Invitrogen (Waltham, MA)
Description: as §1

EGFR = molecular target: T3, EGFR (Homo sapiens, UniProt P00533); test: Tyrosine kinase HTRF assay, EGFR; format: biochemical
T3 construct: purchased Invitrogen (Waltham, MA)
Description: as §1

VEGFR-2 = molecular target: T4, VEGFR-2 (Homo sapiens, UniProt P35968); test: Tyrosine kinase HTRF assay, VEGFR-2; format: biochemical
T4 construct: purchased Invitrogen (Waltham, MA)
Description: as §1

c-Met = molecular target: T5, c-Met (Homo sapiens, UniProt P08581); test: In vitro c-Met enzymatic assay (HTRF); format: biochemical; conditions: HTRF assay; mean ± SD, triplicate; read-out: IC50 against c-Met
T5 construct: purchased Invitrogen (Waltham, MA)
T5 sequence (P08581 25-1390): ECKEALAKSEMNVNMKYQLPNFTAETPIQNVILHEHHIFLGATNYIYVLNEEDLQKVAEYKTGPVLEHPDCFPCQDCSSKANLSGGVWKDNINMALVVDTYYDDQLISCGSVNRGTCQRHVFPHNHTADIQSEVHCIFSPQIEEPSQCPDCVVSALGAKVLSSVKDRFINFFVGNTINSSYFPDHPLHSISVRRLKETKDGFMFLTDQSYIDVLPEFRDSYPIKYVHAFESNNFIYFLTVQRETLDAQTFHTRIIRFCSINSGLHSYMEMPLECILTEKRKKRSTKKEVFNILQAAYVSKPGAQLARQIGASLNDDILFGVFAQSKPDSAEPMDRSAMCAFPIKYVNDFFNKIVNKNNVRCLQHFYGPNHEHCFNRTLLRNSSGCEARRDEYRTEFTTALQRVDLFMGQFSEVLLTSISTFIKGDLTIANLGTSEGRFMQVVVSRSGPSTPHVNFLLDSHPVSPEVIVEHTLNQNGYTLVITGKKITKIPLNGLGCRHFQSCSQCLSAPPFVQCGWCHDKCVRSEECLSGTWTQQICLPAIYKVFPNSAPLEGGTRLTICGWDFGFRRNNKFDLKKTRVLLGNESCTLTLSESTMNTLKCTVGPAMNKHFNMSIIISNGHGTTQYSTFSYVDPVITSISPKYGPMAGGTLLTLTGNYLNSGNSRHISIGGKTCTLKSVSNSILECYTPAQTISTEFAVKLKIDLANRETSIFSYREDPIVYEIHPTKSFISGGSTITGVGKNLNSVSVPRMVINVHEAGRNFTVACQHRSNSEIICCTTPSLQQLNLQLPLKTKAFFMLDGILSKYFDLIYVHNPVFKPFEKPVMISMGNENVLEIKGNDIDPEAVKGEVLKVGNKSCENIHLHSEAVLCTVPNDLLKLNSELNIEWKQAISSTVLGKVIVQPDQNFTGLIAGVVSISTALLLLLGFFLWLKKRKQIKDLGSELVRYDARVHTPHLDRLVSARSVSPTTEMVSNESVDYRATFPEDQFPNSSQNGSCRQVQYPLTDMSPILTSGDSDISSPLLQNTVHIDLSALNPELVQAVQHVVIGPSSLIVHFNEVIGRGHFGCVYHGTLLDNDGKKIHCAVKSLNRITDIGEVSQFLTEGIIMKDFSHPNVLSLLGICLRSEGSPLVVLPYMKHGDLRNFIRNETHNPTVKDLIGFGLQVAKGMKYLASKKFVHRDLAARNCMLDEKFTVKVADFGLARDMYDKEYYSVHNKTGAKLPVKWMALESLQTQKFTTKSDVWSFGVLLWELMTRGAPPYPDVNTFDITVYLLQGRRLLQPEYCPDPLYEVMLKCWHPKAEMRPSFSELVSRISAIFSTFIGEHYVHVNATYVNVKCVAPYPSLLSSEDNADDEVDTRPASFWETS
Description: Inhibition of target compounds on c-Met kinase activity was measured by using the homogeneous time-resolved fluorescence (HTRF) assay.
The tyrosine kinases inhibitory activities of target compounds were evaluated in 384-well microtiter plates using purified kinases purchased from Invitrogen (Waltham, MA) by homogeneous time-resolved fluorescence (HTRF) assay. The HTRF KinEASE TK kit was performed according to the instructions. After the kinases and test compounds were incubated at 25–30 °C for 5 min, the kinase reactions were initiated by addition of 39 μL of kinase reaction buffer solution and incubated at 25–30 °C for 30 min. The reactions were quenched by addition 10 µL mixed detection solution. […] The inhibition rate (%) was calculated using the following equation: inhibition rate = [(activity of enzyme with tested compound – min)/(max – min)] × 100 (max: the enzyme activity in the presence of enzyme, substrates and cofactors; min: the enzyme activity in the presence of substrates, cofactors and in the absence of enzyme). IC50 value was calculated from the inhibition curve using GraphPad Prism 5.0 software (La Jolla, CA).

Flt-3 = molecular target: T6, Flt-3 (Homo sapiens, UniProt P36888); test: Tyrosine kinase HTRF assay, Flt-3; format: biochemical
T6 construct: purchased Invitrogen (Waltham, MA)
T6 sequence (P36888 27-993): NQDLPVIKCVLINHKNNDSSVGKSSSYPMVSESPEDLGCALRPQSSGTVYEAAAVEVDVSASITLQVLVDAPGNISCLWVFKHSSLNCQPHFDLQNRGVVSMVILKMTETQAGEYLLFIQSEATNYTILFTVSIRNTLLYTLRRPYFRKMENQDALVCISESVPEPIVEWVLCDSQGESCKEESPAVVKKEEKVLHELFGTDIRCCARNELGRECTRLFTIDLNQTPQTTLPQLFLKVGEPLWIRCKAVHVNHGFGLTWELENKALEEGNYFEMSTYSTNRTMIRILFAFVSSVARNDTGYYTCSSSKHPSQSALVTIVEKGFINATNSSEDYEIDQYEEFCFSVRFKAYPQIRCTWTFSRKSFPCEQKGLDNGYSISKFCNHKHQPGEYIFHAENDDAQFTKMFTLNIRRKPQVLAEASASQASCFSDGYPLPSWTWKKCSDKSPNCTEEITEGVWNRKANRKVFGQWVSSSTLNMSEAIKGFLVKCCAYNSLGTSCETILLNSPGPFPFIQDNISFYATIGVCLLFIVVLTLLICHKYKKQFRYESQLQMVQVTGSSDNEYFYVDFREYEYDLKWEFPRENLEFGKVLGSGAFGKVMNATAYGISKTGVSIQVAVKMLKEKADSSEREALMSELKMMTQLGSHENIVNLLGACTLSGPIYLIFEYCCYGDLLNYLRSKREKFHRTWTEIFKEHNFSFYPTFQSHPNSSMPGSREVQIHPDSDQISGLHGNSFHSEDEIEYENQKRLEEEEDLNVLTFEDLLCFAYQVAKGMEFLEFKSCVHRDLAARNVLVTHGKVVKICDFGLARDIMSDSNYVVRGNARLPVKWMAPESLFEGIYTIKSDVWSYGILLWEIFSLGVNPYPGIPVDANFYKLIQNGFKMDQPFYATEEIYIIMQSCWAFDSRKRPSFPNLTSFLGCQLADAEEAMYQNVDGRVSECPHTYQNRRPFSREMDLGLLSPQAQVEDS
Description: as §1

c-Met Y1230H = molecular target: T7, c-Met Y1230H (Homo sapiens, UniProt P08581, Y1230H); test: Tyrosine kinase HTRF assay, c-Met Y1230H; format: biochemical
T7 construct: purchased Invitrogen (Waltham, MA)
Description: as §1

c-Met D1228H = molecular target: T8, c-Met D1228H (Homo sapiens, UniProt P08581, D1228H); test: Tyrosine kinase HTRF assay, c-Met D1228H; format: biochemical
T8 construct: purchased Invitrogen (Waltham, MA)
Description: as §1

[3] = tested on: c-Met phosphorylation in MKN-45 cells; test: Western blotting analysis of c-Met phosphorylation; format: cell-based, human; conditions: 24 h, 0, 2.5, 5.0, and 10.0 μM
Description: To obtain further insight into the mechanism of 51am induced apoptosis, western blot assay was carried out to investigate the effect of 51am on the phosphorylation of c-Met in living cells. MKN-45 cells were treated with 51am for 24 h in a series of concentrations (0, 2.5, 5.0, and 10.0 μM) using DMSO as the negative control, and the level of GAPDH served as the loading control.
MKN-45 cells were incubated with the test compound at various concentrations for 24 h. After incubation, cells were harvested in PBS solution containing proteinase inhibitors and phosphatase inhibitors, and then sonicated. Whole cell lysates were separated by sodium dodecyl sulphate-polyacrylamide gel electrophoresis (SDS-PAGE) and transferred to nitrocellulose membrane (Beyotime Biotechnology, Shanghai, China). The membrane was incubated with primary antibody followed by labelling with horseradish peroxidase (HRP)-conjugated secondary antibody (Beyotime Biotechnology, Shanghai, China). The blots were developed with enhanced chemiluminescence and visualised by an LAS4000 imager (Fuji Photo Film, Minato City, Japan).

[4] = tested on: PDGFRα, PDGFRβ, VEGFR-2, and Flt-4; test: Kinase selectivity relative to c-Met; format: biochemical
Description: as §1

c-Met M1250T = molecular target: T9, c-Met M1250T (Homo sapiens, UniProt P08581, M1250T); test: Tyrosine kinase HTRF assay, c-Met M1250T; format: biochemical
T9 construct: purchased Invitrogen (Waltham, MA)
Description: as §1

PDGFRβ = molecular target: T10, PDGFRβ (Homo sapiens, UniProt P09619); test: Tyrosine kinase HTRF assay, PDGFRβ; format: biochemical
T10 construct: purchased Invitrogen (Waltham, MA)
T10 sequence (P09619 33-1106): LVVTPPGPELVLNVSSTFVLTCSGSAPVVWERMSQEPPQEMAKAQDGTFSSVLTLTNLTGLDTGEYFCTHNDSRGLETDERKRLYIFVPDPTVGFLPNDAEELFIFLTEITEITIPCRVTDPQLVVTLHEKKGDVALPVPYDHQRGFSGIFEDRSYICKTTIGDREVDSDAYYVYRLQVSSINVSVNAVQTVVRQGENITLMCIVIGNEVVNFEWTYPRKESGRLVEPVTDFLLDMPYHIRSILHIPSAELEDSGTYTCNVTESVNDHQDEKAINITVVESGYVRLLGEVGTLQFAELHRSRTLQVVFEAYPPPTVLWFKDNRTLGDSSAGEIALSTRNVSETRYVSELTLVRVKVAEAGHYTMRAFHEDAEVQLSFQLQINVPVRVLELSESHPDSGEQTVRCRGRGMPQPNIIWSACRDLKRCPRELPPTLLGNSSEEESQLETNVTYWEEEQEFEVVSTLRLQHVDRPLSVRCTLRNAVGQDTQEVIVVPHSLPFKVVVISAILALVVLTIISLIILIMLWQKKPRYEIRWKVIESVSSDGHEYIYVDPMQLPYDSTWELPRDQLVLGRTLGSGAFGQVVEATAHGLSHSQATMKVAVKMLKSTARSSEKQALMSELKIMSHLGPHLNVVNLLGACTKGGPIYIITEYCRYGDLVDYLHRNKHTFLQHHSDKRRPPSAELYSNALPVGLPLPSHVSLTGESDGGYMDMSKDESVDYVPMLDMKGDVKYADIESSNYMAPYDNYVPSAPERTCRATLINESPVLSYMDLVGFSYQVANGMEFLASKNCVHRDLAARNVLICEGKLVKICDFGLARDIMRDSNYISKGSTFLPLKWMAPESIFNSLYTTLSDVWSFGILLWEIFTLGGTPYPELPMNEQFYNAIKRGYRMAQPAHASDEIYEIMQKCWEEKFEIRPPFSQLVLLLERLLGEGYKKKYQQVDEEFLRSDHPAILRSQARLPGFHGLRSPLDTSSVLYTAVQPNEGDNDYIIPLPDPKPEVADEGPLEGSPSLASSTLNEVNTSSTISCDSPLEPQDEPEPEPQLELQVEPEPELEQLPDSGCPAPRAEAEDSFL
Description: as §1

c-kit = molecular target: T11, c-kit (Homo sapiens, UniProt P10721); test: Tyrosine kinase HTRF assay, c-kit; format: biochemical
T11 construct: purchased Invitrogen (Waltham, MA)
Description: as §1

c-Met H1094R = molecular target: T12, c-Met H1094R (Homo sapiens, UniProt P08581, H1094R); test: Tyrosine kinase HTRF assay, c-Met H1094R; format: biochemical
T12 construct: purchased Invitrogen (Waltham, MA)
Description: as §1

Flt-4 = molecular target: T13, Flt-4 (Homo sapiens, UniProt P35916); test: Tyrosine kinase HTRF assay, Flt-4; format: biochemical
T13 construct: purchased Invitrogen (Waltham, MA)
Description: as §1

Ron = molecular target: T14, Ron (Homo sapiens, UniProt Q04912); test: Tyrosine kinase HTRF assay, Ron; format: biochemical
T14 construct: purchased Invitrogen (Waltham, MA)
Description: as §1

## COc1cc2c(Oc3ccc(NC(=O)C4(C(=O)Nc5ccc(F)cc5)CC4)cc3F)ccnc2cc1OCCCN1CCOCC1 [Foretinib, reference compound]
HT-29
  IC50: 370 ± 50 nM
A549
  IC50: 450 ± 50 nM
FHC
  IC50: 4060 ± 750 nM
MKN-45 cells; MKN-45, 1.2 μM
  percentage of apoptotic cells: 41.21%
MKN-45
  IC50: 58 ± 6 nM
HUVEC
  IC50: 680 ± 90 nM
MDA-MB-231
  IC50: 890 ± 140 nM

## Cn1cc(-c2ccc3nnc(Sc4ccc5ncccc5c4)n3n2)cn1 [SGX523]
[1]
  inhibition of phosphorylation of c-Met and Akt: effectively inhibited the phosphorylation of c-Met and its downstream protein Akt

## O=C(Nc1ccc(Oc2ccnc(Cl)c2Cl)c(F)c1)c1nc(-c2ccc(F)c(Cl)c2)cs1 [Compound 51am, 4-(3-Chloro-4-fluorophenyl)-N-(4-((2,3-dichloropyridin-4-yl)oxy)-3-fluorophenyl)thiazole-2-carboxamide]
PDGFRα
  IC50: 425 nM
[2]; iv, i.v. (1.5 mg/kg)
  AUC(0-inf): 2500 ng·h/mL
  Cmax: 552 ng/mL
  half-life: 3.2 h
[2]; iv, i.v. (1.5 mg/kg), CL = dose/AUCi.v.
  clearance: 10 mL/min/kg
[2]; oral, p.o. (10 mg/kg) vs i.v. (1.5 mg/kg), read-out: F (oral bioavailability)
  bioavailability: 69%
[2]; po, p.o. (10 mg/kg)
  AUC(0-inf): 11500 ng·h/mL
  Cmax: 1760 ng/mL
  Tmax: 4.1 h
  half-life: 5.6 h
c-Met Y1235D
  IC50: 54.2 nM
EGFR
  IC50: > 10000 nM
VEGFR-2
  IC50: 527 nM
c-Met
  IC50: 2.54 ± 0.49 nM
HT-29
  IC50: 680 ± 90 nM
A549
  IC50: 830 ± 360 nM
FHC
  IC50: 8630 ± 1520 nM
Flt-3
  IC50: 6.12 nM
c-Met Y1230H
  IC50: 45.8 nM
c-Met D1228H
  IC50: 29.4 nM
[3]
  effect on c-Met phosphorylation (western blot): inhibited c-Met phosphorylation in a dose-dependent manner
MKN-45 cells; MKN-45, 0.4 μM
  percentage of apoptotic cells: 14.74%
MKN-45 cells; MKN-45, 0.8 μM
  percentage of apoptotic cells: 19.83%
MKN-45 cells; MKN-45, 1.2 μM
  percentage of apoptotic cells: 38.54%
MKN-45
  IC50: 92 ± 6 nM
[4]
  fold less potent than against c-Met: 108–207 fold
HUVEC
  IC50: 2540 ± 460 nM
c-Met M1250T
  IC50: 26.5 nM
PDGFRβ
  IC50: 513 nM
c-kit
  IC50: 4.94 nM
c-Met H1094R
  IC50: 93.6 nM
Flt-4
  IC50: 276 nM
MDA-MB-231
  IC50: 3940 ± 1320 nM
Ron
  IC50: 3.83 nM

## COc1cc2nccc(Oc3ccc(NC(=O)c4ncc(-c5ccc(F)cc5)s4)cc3)c2cc1OC [Compound 51h, N-(4-((6,7-Dimethoxyquinolin-4-yl)oxy)phenyl)-5-(4-fluorophenyl)thiazole-2-carboxamide]
c-Met
  IC50: 35.4 ± 5.03 nM
HT-29
  IC50: 22700 ± 3320 nM
A549
  IC50: 16800 ± 1580 nM
FHC
  IC50: 50200 ± 2890 nM
other
  melting point: 252 to 254 °C
MKN-45
  IC50: 5970 ± 980 nM
HUVEC
  IC50: 42100 ± 4350 nM
MDA-MB-231
  IC50: 34200 ± 2820 nM
